According to PubChem BioAssay (NCI):
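In this assay, cells in 96-well plates receive the compound at five concentrations for 48 hours. Endpoints are linearly interpolated between the surrounding concentrations. GI50: concentration for 50% inhibition of growth. TGI marks complete inhibition of growth.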

System: OVCAR-8 ovarian
Assay: inhibition of tumour cell growth, NCI panel, 48 h

SMILES	TGI [µM]	GI50 [µM]
O=c1[nH]c(=O)n(C2CC(O)C(CS)O2)cc1F (stereo not drawn)	> 63.1	
CNC1C(=O)C(C)C(O)(C(CC(C)C(O)/C=C/C=C/CNC(=O)C(C)(C)C(O)\C(C)=C/C=C\C=C\Cc2cnc(C)o2)OC)C12C(=O)OC2COC (stereo not drawn) (tested in a mixture with another compound)	> 100	
O=C(O)C(Sc1ccc(Cl)cc1)Sc1ccc(Cl)cc1	> 100	
CC[C@H](C)[C@H](NC(=O)[C@H]1CCCCN1C)C(=O)N(C)[C@H](CCc1nc(C(=O)N[C@@H](Cc2ccccc2)C[C@H](C)C(=O)OC)cs1)C(C)C	> 25	0.717
COc1ccc(C(=O)/C=C/c2cccnc2Nc2cc(OC)c(OC)c(OC)c2)cc1	11	2.2
NCCCCn1c2c(c3ccccc3c1=O)C(=O)c1ccccc1-2	0.625	0.0902
CCOC(=O)c1c(C)n(Cc2ccc(OC)cc2)c2c1cc(O)c1[nH]c3c(c12)CCCC3	10.9	3.05
COc1cc2c3c(n(CCCBr)c(=O)c2cc1OC)-c1ccc(NC(C)=O)cc1C3=O	> 100	18.7
COc1ccc(S(=O)(=O)N(Cc2ccc3c(n2)C=CC(C)(C)O3)C2CCC2)cc1OC		< 0.01
COc1ccc(C2CC(=O)c3c(O)c(OC)c(OC)c(OC)c3O2)c(O)c1 (stereo not drawn)	40.9	0.294

System: RPMI-8226 leukemia
Assay: inhibition of tumour cell growth, NCI panel, 48 h

SMILES	TGI [µM]	GI50 [µM]
O=c1[nH]c(=O)n(C2CC(O)C(CS)O2)cc1F (stereo not drawn)	> 100	
CNC1C(=O)C(C)C(O)(C(CC(C)C(O)/C=C/C=C/CNC(=O)C(C)(C)C(O)\C(C)=C/C=C\C=C\Cc2cnc(C)o2)OC)C12C(=O)OC2COC (stereo not drawn) (tested in a mixture with another compound)	42.4	
O=C(O)C(Sc1ccc(Cl)cc1)Sc1ccc(Cl)cc1	> 100	
CC[C@H](C)[C@H](NC(=O)[C@H]1CCCCN1C)C(=O)N(C)[C@H](CCc1nc(C(=O)N[C@@H](Cc2ccccc2)C[C@H](C)C(=O)OC)cs1)C(C)C	8.17	0.0929
COc1ccc(C(=O)/C=C/c2cccnc2Nc2cc(OC)c(OC)c(OC)c2)cc1	4.71	0.885
NCCCCn1c2c(c3ccccc3c1=O)C(=O)c1ccccc1-2	0.932	0.0887
CCOC(=O)c1c(C)n(Cc2ccc(OC)cc2)c2c1cc(O)c1[nH]c3c(c12)CCCC3	58	3.78
COc1cc(-c2c(C#N)c(N)n3c(nc4ccccc43)c2C#N)cc(Br)c1OC	> 100	6.83
COc1cc2c3c(n(CCCBr)c(=O)c2cc1OC)-c1ccc(NC(C)=O)cc1C3=O	27.2	5.28
COc1ccc(S(=O)(=O)N(Cc2ccc3c(n2)C=CC(C)(C)O3)C2CCC2)cc1OC	0.163	0.0331
COc1ccc(C2CC(=O)c3c(O)c(OC)c(OC)c(OC)c3O2)c(O)c1 (stereo not drawn)	18.4	0.372

System: SF-268 CNS
Assay: inhibition of tumour cell growth, NCI panel, 48 h

SMILES	TGI [µM]	GI50 [µM]
O=c1[nH]c(=O)n(C2CC(O)C(CS)O2)cc1F (stereo not drawn)	> 100	
CNC1C(=O)C(C)C(O)(C(CC(C)C(O)/C=C/C=C/CNC(=O)C(C)(C)C(O)\C(C)=C/C=C\C=C\Cc2cnc(C)o2)OC)C12C(=O)OC2COC (stereo not drawn) (tested in a mixture with another compound)	42.9	
O=C(O)C(Sc1ccc(Cl)cc1)Sc1ccc(Cl)cc1	> 100	
CC[C@H](C)[C@H](NC(=O)[C@H]1CCCCN1C)C(=O)N(C)[C@H](CCc1nc(C(=O)N[C@@H](Cc2ccccc2)C[C@H](C)C(=O)OC)cs1)C(C)C	> 25	1.03
COc1ccc(C(=O)/C=C/c2cccnc2Nc2cc(OC)c(OC)c(OC)c2)cc1	14.8	3.04
NCCCCn1c2c(c3ccccc3c1=O)C(=O)c1ccccc1-2	1.86	0.208
CCOC(=O)c1c(C)n(Cc2ccc(OC)cc2)c2c1cc(O)c1[nH]c3c(c12)CCCC3	18.7	3.47
COc1cc(-c2c(C#N)c(N)n3c(nc4ccccc43)c2C#N)cc(Br)c1OC	> 100	77.5
COc1cc2c3c(n(CCCBr)c(=O)c2cc1OC)-c1ccc(NC(C)=O)cc1C3=O	> 100	2.11
COc1ccc(S(=O)(=O)N(Cc2ccc3c(n2)C=CC(C)(C)O3)C2CCC2)cc1OC	1.13	< 0.01
COc1ccc(C2CC(=O)c3c(O)c(OC)c(OC)c(OC)c3O2)c(O)c1 (stereo not drawn)	38.3	0.534

System: SNB-19 CNS
Assay: inhibition of tumour cell growth, NCI panel, 48 h

SMILES	TGI [µM]	GI50 [µM]
O=c1[nH]c(=O)n(C2CC(O)C(CS)O2)cc1F (stereo not drawn)	> 100	
CNC1C(=O)C(C)C(O)(C(CC(C)C(O)/C=C/C=C/CNC(=O)C(C)(C)C(O)\C(C)=C/C=C\C=C\Cc2cnc(C)o2)OC)C12C(=O)OC2COC (stereo not drawn) (tested in a mixture with another compound)	> 85.9	
O=C(O)C(Sc1ccc(Cl)cc1)Sc1ccc(Cl)cc1	> 100	
CC[C@H](C)[C@H](NC(=O)[C@H]1CCCCN1C)C(=O)N(C)[C@H](CCc1nc(C(=O)N[C@@H](Cc2ccccc2)C[C@H](C)C(=O)OC)cs1)C(C)C	> 25	0.151
COc1ccc(C(=O)/C=C/c2cccnc2Nc2cc(OC)c(OC)c(OC)c2)cc1	17.3	2.82
NCCCCn1c2c(c3ccccc3c1=O)C(=O)c1ccccc1-2	12.2	0.389
CCOC(=O)c1c(C)n(Cc2ccc(OC)cc2)c2c1cc(O)c1[nH]c3c(c12)CCCC3	65.2	4.84
COc1cc(-c2c(C#N)c(N)n3c(nc4ccccc43)c2C#N)cc(Br)c1OC	> 100	> 100
COc1cc2c3c(n(CCCBr)c(=O)c2cc1OC)-c1ccc(NC(C)=O)cc1C3=O	> 100	3.19
COc1ccc(C2CC(=O)c3c(O)c(OC)c(OC)c(OC)c3O2)c(O)c1 (stereo not drawn)	> 100	0.384

System: UACC-257 melanoma
Assay: inhibition of tumour cell growth, NCI panel, 48 h

SMILES	TGI [µM]	GI50 [µM]
O=c1[nH]c(=O)n(C2CC(O)C(CS)O2)cc1F (stereo not drawn)	> 100	
CNC1C(=O)C(C)C(O)(C(CC(C)C(O)/C=C/C=C/CNC(=O)C(C)(C)C(O)\C(C)=C/C=C\C=C\Cc2cnc(C)o2)OC)C12C(=O)OC2COC (stereo not drawn) (tested in a mixture with another compound)	> 100	
O=C(O)C(Sc1ccc(Cl)cc1)Sc1ccc(Cl)cc1	> 100	
CC[C@H](C)[C@H](NC(=O)[C@H]1CCCCN1C)C(=O)N(C)[C@H](CCc1nc(C(=O)N[C@@H](Cc2ccccc2)C[C@H](C)C(=O)OC)cs1)C(C)C	> 25	4.43
COc1ccc(C(=O)/C=C/c2cccnc2Nc2cc(OC)c(OC)c(OC)c2)cc1	15	3.93
NCCCCn1c2c(c3ccccc3c1=O)C(=O)c1ccccc1-2	1.91	0.619
CCOC(=O)c1c(C)n(Cc2ccc(OC)cc2)c2c1cc(O)c1[nH]c3c(c12)CCCC3	9.66	1.77
COc1cc(-c2c(C#N)c(N)n3c(nc4ccccc43)c2C#N)cc(Br)c1OC	> 100	> 100
COc1cc2c3c(n(CCCBr)c(=O)c2cc1OC)-c1ccc(NC(C)=O)cc1C3=O	> 100	28.1
COc1ccc(S(=O)(=O)N(Cc2ccc3c(n2)C=CC(C)(C)O3)C2CCC2)cc1OC	0.239	< 0.0105
